# Test results: patent publication US20070254917A1, “INTRACELLULAR RECEPTOR MODULATOR COMPOUNDS AND METHODS” (priority 2004, published 2007)
# Target: T1, human glucocorticoid receptor protein (GR) (Homo sapiens, UniProt P04150)
# T1 construct: made in house; host or cells: Sf21 insect cells (baculovirus)
# T1 sequence (P04150 1-777): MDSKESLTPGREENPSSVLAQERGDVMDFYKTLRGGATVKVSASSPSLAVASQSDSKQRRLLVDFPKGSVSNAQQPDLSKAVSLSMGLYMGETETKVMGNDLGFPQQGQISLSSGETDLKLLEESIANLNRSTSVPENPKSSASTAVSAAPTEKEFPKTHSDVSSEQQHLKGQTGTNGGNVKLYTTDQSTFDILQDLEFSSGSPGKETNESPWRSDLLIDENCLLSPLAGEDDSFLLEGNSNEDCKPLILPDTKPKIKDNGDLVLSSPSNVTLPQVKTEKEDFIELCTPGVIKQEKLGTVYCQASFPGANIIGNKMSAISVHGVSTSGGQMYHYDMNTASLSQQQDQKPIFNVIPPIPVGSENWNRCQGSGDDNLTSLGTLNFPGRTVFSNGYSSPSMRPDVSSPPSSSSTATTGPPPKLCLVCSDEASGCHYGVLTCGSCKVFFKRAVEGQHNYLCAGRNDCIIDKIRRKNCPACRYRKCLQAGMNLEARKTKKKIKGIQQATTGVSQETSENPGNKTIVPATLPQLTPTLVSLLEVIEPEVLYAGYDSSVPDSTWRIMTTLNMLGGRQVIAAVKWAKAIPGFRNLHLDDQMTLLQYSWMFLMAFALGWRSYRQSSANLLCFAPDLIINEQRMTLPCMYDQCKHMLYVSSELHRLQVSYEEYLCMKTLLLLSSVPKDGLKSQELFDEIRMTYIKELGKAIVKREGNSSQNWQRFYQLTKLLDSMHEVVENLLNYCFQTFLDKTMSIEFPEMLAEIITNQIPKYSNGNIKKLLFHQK
# Test: Glucocorticoid binding assay ([3H]dexamethasone displacement, GR lysate)
# Conditions: baculovirus-expressed GR lysate from Sf21 cells; 2-4 nM [3H]dexamethasone; 16 hours at 4° C.; Cheng-Prusoff from IC50
# Procedure: A baculovirus expression plasmid comprising cDNA encoding the human glucocorticoid receptor protein (GR) was prepared using standard techniques. […] That expression plasmid was co-transfected together with wild type Autographa californica multiple nuclear polyhedrosis virus DNA into Spodopter frugiperda-21 (Sf-21) cells to generate recombinant virus comprising GR cDNA. […] That recombinant virus comprising GR cDNA was collected.
# A suspension culture of uninfected Sf21 cells was grown to a density of 1.2×10^6 cells/ml and then infected with the recombinant virus comprising GR cDNA at a multiplicity of infection of 2. Those infected Sf21 cells were incubated for 48 hours and then collected by centrifugation at 1000×g for 10 minutes at 4° C. The resulting cell pellets were resuspended in lysis buffer (50 mM Potassium Phosphate buffer, pH 7.0, 10 mM Monothioglycerol, 5 mM DTT, 20 mM Sodium Molybdate, 1 mM PMSF, 1 μg/mL aprotinin, and 10 μg/mL leupeptin) and incubated for 15 minutes on ice. Those resuspended cell pellets were homogenized using a Dounce homogenizer and a B pestle. A volume of 2 M KCl was added to the homogenized cell pellets to a final concentration of 0.4 M. The resulting GR lysates were centrifuged at 100,000×g for 60 min at 4° C. and stored for use in binding assays.
# Binding assay samples were prepared in separate mini-tubes in a 96-well format at 4° C. […] Each reference compound and test compound was assayed at varying concentrations, ranging from 0 to 10^−5 M. Each concentration of each reference compound and each test compound was assayed in triplicate. The assay samples were incubated for 16 hours at 4° C.
# After incubation, 200 μl of 6.25% hydroxylapatite in assay buffer was added to each assay sample to precipitate the protein. The assay samples were then centrifuged and the supernatants were discarded. The resulting pellets were washed twice with assay buffer lacking DTT. Radioactivity in counts per minute (CPM) of each washed pellet was determined by liquid scintillation counter (MicroBeta™, Wallach).
row,Ki,SMILES
1,34 nM,"COc1cccc(OC)c1-c1cc(C)c2c(c1Cl)C(C)CC(C)(C)N2 (racemic) [Compound 104, (±)-5-Chloro-6-(2,6-dimethoxyphenyl)-1,2,3,4-tetrahydro-2,2,4,8-tetramethylquinoline]"
2,4 nM,"Cc1cc(-c2csc3ccccc23)c(Cl)c2c1NC(C)(C)CC2C (racemic) [Compound 109, (±)-6-(Benzothiophen-3-yl)-5-chloro-1,2,3,4-tetrahydro-2,2,4,8-tetramethylquinoline]"
3,420 nM,"Cc1cc(-c2cc3ccccc3s2)c(Cl)c2c1NC(C)(C)CC2C (racemic) [Compound 116, (±)-6-(Benzothiophen-2-yl)-5-chloro-1,2,3,4-tetrahydro-2,2,4,8-tetramethylquinoline]"
4,22 nM,"Cc1cc(-c2ccccc2Cl)c(Cl)c2c1NC(C)(C)CC2C (racemic) [Compound 118, (±)-5-Chloro-6-(2-chlorophenyl)-1,2,3,4-tetrahydro-2,2,4,8-tetramethylquinoline]"
5,97 nM,"CC(=O)c1ccccc1-c1cc(C)c2c(c1Cl)C(C)CC(C)(C)N2 (racemic) [Compound 119, (±)-6-(2-Acetylphenyl)-5-chloro-1,2,3,4-tetrahydro-2,2,4,8-tetramethylquinoline]"
6,14 nM,"COc1ccc(Cl)cc1-c1cc(C)c2c(c1Cl)C(C)CC(C)(C)N2 (racemic) [Compound 121, (±)-5-Chloro-6-(5-chloro-2-methoxyphenyl)-1,2,3,4-tetrahydro-2,2,4,8-tetramethylquinoline]"
7,78 nM,"Cc1cc(-c2ccccc2[N+](=O)[O-])c(Cl)c2c1NC(C)(C)CC2C (racemic) [Compound 122, (±)-5-Chloro-1,2,3,4-tetrahydro-2,2,4,8-tetramethyl-6-(2-nitrophenyl)quinoline]"
8,81 nM,"Cc1cc(-c2cccc(C(F)(F)F)c2F)c(Cl)c2c1NC(C)(C)CC2C (racemic) [Compound 130, (±)-5-Chloro-6-[2-fluoro-3-(trifluoromethyl)phenyl]-1,2,3,4-tetrahydro-2,2,4,8-tetramethylquinoline]"
9,8.8 nM,"Cc1cc(-c2cccc3ccccc23)c(Cl)c2c1NC(C)(C)CC2C (racemic) [Compound 135, (±)-5-Chloro-1,2,3,4-tetrahydro-2,2,4,8-tetramethyl-6-(naphthal-1-yl)quinoline]"
10,2 nM,"Cc1cc(-c2ccc(F)c3c(C)c[nH]c23)c(Cl)c2c1NC(C)(C)CC2C (racemic) [Compound 147, (±)-5-Chloro-6-(4-fluoro-3-methylindol-7-yl)-1,2,3,4-tetrahydro-2,2,4,8-tetramethylquinoline]"
11,3.6 nM,"COc1c(O)cccc1-c1cc(C)c2c(c1Cl)C(C)CC(C)(C)N2 (racemic) [Compound 151, (±)-5-Chloro-1,2,3,4-tetrahydro-6-(3-hydroxy-2-methoxyphenyl)-2,2,4,8-tetramethylquinoline]"
12,0.4 nM,"Cc1cc(-c2cccc3c2CCC3=NO)c(Cl)c2c1NC(C)(C)CC2C (racemic) [Compound 154, (±)-5-Chloro-6-(1-hydroxyiminoindan-4-yl)-1,2,3,4-tetrahydro-2,2,4,8-tetramethylquinoline]"
13,1.4 nM,"Cc1cc(-c2cccc(C#N)c2C)c(Cl)c2c1NC(C)(C)CC2C (racemic) [Compound 155, (±)-5-Chloro-6-(3-cyano-2-methylphenyl)-1,2,3,4-tetrahydro-2,2,4,8-tetramethylquinoline]"
14,2.9 nM,"COc1c(-c2cc(C)c3c(c2Cl)C(C)CC(C)(C)N3)cccc1[N+](=O)[O-] (racemic) [Compound 156, (±)-5-Chloro-1,2,3,4-tetrahydro-6-(2-methoxy-3-nitrophenyl)-2,2,4,8-tetramethylquinoline]"
15,130 nM,"Cc1cc(-c2ccsc2)c(Cl)c2c1NC(C)(C)C(O)C2C (racemic) [Compound 160, (±)-5-Chloro-1,2,3,4-tetrahydro-3β-hydroxy-2,2,4α,8-tetramethyl-6-(thiophen-3-yl)quinoline]"
16,3.3 nM,"Cc1cc(-c2c(C)noc2C)c(Cl)c2c1NC(C)(C)C(O)C2C (racemic) [Compound 164, (±)-5-Chloro-6-(3,5-dimethylisoxazol-4-yl)-1,2,3,4-tetrahydro-3β-hydroxy-2,2,4α,8-tetramethylquinoline]"
17,2.7 nM,"COc1c(C#N)cccc1-c1cc(C)c2c(c1Cl)C(C)C(O)C(C)(C)N2 (racemic) [Compound 165, (±)-5-Chloro-6-(3-cyano-2-methoxyphenyl)-1,2,3,4-tetrahydro-3β-hydroxy-2,2,4α,8-tetramethylquinoline]"
18,2.6 nM,"COc1c(C#N)cccc1-c1cc(C)c2c(c1Cl)C(C)C(=O)C(C)(C)N2 (racemic) [Compound 179, (±)-5-Chloro-6-(3-cyano-2-methoxyphenyl)-1,4-dihydro-2,2,4,8-tetramethyl-2H-quinolin-3-one]"
19,2.5 nM,"CC(C)=CCC1(C)C(=O)C(C)(C)Nc2c(C)cc(-c3c(C)noc3C)c(Cl)c21 (racemic) [Compound 185, (±)-5-Chloro-4-(3,3-dimethylallyl)-6-(3,5-dimethylisoxazol-4-yl)-1,4-dihydro-2,2,4,8-tetramethyl-2H-quinolin-3-one]"
20,4.8 nM,"COc1c(C#N)cccc1-c1cc(C)c2c(c1Cl)C(C)C(O)C(C)(C)N2 (racemic) [Compound 191, (±)-5-Chloro-6-(3-cyano-2-methoxyphenyl)-1,2,3,4-tetrahydro-3α-hydroxy-2,2,4α,8-tetramethylquinoline]"
21,9.4 nM,"Cc1cc(-c2c(C)noc2C)c(Cl)c2c1NC(C)(C)C(O)C2C (racemic) [Compound 192, (±)-5-Chloro-6-(3,5-dimethylisoxazol-4-yl)-1,2,3,4-tetrahydro-3α-hydroxy-2,2,4α,8-tetramethylquinoline]"
22,13 nM,"Cc1cc(-c2csc3ccccc23)c(Cl)c2c1NC(C)(C)C(O)C2C (racemic) [Compound 194, (±)-6-(Benzothiophen-3-yl)-5-chloro-1,2,3,4-tetrahydro-3α-hydroxy-2,2,4α,8-tetramethylquinoline]"
23,56 nM,"CC(C)=CCOc1c(-c2cc(C)c3c(c2Cl)C(C)CC(C)(C)N3)cccc1[N+](=O)[O-] (racemic) [Compound 203, (±)-5-Chloro-1,2,3,4-tetrahydro-2,2,4,8-tetramethyl-6-[2-(methylbut-2-enyloxy)-3-nitrophenyl]quinoline]"
24,26 nM,"Cc1cc(-c2cccc3c2OCC(=O)N3)c(Cl)c2c1NC(C)(C)CC2C (racemic) [Compound 204, (±)-6-(2H-1,4-Benzoxazin-3(4H)-on-8-yl)-5-chloro-1,2,3,4-tetrahydro-2,2,4,8-tetramethylquinoline]"
25,87 nM,"Cc1cc(-c2cccc3c2OCC(=O)N3C)c(Cl)c2c1NC(C)(C)CC2C (racemic) [Compound 205, (±)-5-Chloro-1,2,3,4-tetrahydro-2,2,4,8-tetramethyl-6-(4-methyl-2H-1,4-benzoxazin-3(4H)-on-8-yl)quinoline]"
26,5.7 nM,"Cc1cc(-c2cccc3c2NCC3)c(Cl)c2c1NC(C)(C)CC2C (racemic) [Compound 210, (±)-5-Chloro-1,2,3,4-tetrahydro-6-(indolin-7-yl)-2,2,4,8-tetramethylquinoline]"
27,5.9 nM,"Cc1cc(-c2cccc3ccccc23)c(Cl)c2c1NC(C)(C)CC2(C)O (racemic) [Compound 215, (±)-5-Chloro-1,2,3,4-tetrahydro-4-hydroxy-2,2,4,8-tetramethyl-6-(naphthal-1-yl)quinoline]"
